Data reported in patent US8735395B2, “Protease inhibitors” (Medivir AB, priority 2008, dated 2014).

Assays:
[1] = molecular target: human recombinant cathepsin K (Homo sapiens (Human), UniProt P43235); assay: Determination of cathepsin K proteolytic catalytic activity (Ki); type: biochemical
Experimental: Determination of Cathepsin K Proteolytic Catalytic Activity
Convenient assays for cathepsin K are carried out using human recombinant enzyme, such as that described in PDB.
The recombinant cathepsin K can be expressed in a variety of commercially available expression systems including E coli, Pichia and Baculovirus systems. The purified enzyme is activated by removal of the prosequence by conventional methods.
The enzyme concentration used was 5 nM. The stock substrate solution was prepared at 10 mM in DMSO. Screens were carried out at a fixed substrate concentration of 60 μM and detailed kinetic studies with doubling dilutions of substrate from 250 μM. The total DMSO concentration in the assay was kept below 3%. All assays were conducted at ambient temperature. Product fluorescence (excitation at 390 nm, emission at 460 nm) was monitored with a Labsystems Fluoroskan Ascent fluorescent plate reader. Product progress curves were generated over 15 minutes following generation of AMC product.
(§1) Potential inhibitors are screened using the above assay with variable concentrations of test compound. Reactions were initiated by addition of enzyme to buffered solutions of substrate and inhibitor. Ki values were calculated according to equation 1.
where v0 is the velocity of the reaction, V is the maximal velocity, S is the concentration of substrate with Michaelis constant of KM, and I is the concentration of inhibitor.

human cathepsin S = human cathepsin S (Homo sapiens (Human), UniProt P25774); assay: Cathepsin S Ki determination; type: biochemical
Chain of human cathepsin S (P25774 115-331): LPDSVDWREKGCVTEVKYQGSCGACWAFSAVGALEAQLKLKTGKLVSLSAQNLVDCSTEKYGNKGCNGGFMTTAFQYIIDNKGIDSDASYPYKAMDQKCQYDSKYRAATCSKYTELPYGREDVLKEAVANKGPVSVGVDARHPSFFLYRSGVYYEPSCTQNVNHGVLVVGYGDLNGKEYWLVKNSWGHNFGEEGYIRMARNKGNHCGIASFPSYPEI
Experimental: 280 μl/well of 12.5% DMSO are added to rows B-H of two columns of a 96 deep well polypropylene plate. […] 200 μl/well of assay buffer is added to columns 1 and 6. […] Mix row A using a multichannel pipette and double dilute to row G. Mix row H and read in the fluorescent spectrophotometer. […] The second test compound is added to column 6 of the top row, the third to column 1 of the second row etc. Add 1 μl of comparator to column 6 of the bottom row. Mix column 1 and double dilute to column 5. Mix column 6 and double dilute to column 10. Using an 8-channel multistepping pipette set to 5×10 μl, distribute 10 μl/well of substrate to the 384 well assay plate. Distribute the first column of the substrate dilution plate to all columns of the assay plate starting at row A. The tip spacing of the multichannel pipette will correctly skip alternate rows. Distribute the second column to all columns starting at row B. Using a 12-channel multistepping pipette set to 4×10 μl, distribute 10 μl/well of inhibitor to the 384 well assay plate. Distribute the first row of the inhibitor dilution plate to alternate rows of the assay plate starting at A1. The tip spacing of the multichannel pipette will correctly skip alternate columns. […] Mix 20 ml assay buffer and 20 μl 1M DTT. […] Using the a distributor such as a Multidrop 384, add 30 μl/well to all wells of the assay plate and read in fluorescent spectrophotomoter such as an Ascent. Fluorescent readings, (excitation and emission wavelengths 390 nm and 460 nm respectively, set using bandpass filters) reflecting the extent of enzyme cleavage of the fluorescent substrate, notwithstanding the inhibitor, are linear rate fitted for each well. […] Potential inhibitors are screened using the above assay with variable concentrations of test compound. Reactions were initiated by addition of enzyme to buffered solutions of substrate and inhibitor.

human cathepsin L = human cathepsin L (Homo sapiens (Human), UniProt P07711); assay: Cathepsin L Ki; type: biochemical
Chain of human cathepsin L (P07711 114-333): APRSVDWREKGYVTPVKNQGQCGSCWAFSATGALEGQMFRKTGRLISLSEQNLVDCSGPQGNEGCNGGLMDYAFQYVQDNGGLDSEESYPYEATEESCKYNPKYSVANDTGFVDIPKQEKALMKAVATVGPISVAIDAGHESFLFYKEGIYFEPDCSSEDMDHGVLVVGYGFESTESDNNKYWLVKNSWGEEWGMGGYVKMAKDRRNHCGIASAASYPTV
Experimental: The procedure above with the following amendments is used for the determination of Ki for cathepsin L.
The enzyme is commercially available human cathepsin L (for example Calbiochem). The substrate is H-D-Val-Leu-Lys-AMC available from Bahcem. The assay buffer is 100 mM sodium acetate 1 mM EDTA, pH5.5) The DMSO stock (10 mM in 100% DMSO) is diluted to 10% in assay buffer. Enzyme is prepared at 5 nM concentration in assay buffer plus 1 mM dithiothreitol just before use. 2 ul of 10 mM inhibitor made up in 100% DMSO is dispensed into row A. 10 μl of 50 μM substrate (=1/200 dilution of 10 mM stock in DMSO, diluted in assay buffer)
as §1

[2] = Metabolic stability in whole blood (CLint); type: in vitro ADME
Experimental: (§2) Alternatively, an analogous stability assay is carried out in human or monkey whole blood and/or commercially available liver microsomes, such as XEN 025.

[3] = Metabolic stability in liver microsomes (HLM CLint); type: in vitro ADME; details: human
Experimental: as §2

[4] = In vivo mouse PK, oral administration (FIG. 1); details: male C57BI mice, oral 60 μmol/kg in 1% Methocel A4C; compared with Example 2 of WO2008 007107
From the text: FIG. 1 depicts plasma concentration against time for male C57BI mice orally administered a compound of the invention or a compound of the prior art.
Various embodiments of the invention will now be described by way of illustration only with reference to the following Examples and FIG. 1 which depicts plasma concentration against time for male C57BI mice orally administered a compound of the invention or a compound of the prior art.

Caco-2 permeability = details: human
[5] = reference markers for the Caco-2 assay; cited from earlier work

Chain of human recombinant cathepsin K (P43235 115-329): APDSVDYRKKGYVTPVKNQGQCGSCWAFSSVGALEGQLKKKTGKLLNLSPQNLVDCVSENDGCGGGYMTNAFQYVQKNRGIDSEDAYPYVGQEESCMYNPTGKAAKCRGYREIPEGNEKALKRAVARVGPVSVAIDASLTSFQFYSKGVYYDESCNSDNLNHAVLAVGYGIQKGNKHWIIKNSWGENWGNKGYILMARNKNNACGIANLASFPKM

Ki ([1]; Test 1, class symbols) | Ki ([1]; Test 2 or unnumbered test) | Ki (human cathepsin S; Test 2 or unnumbered test) | Ki (human cathepsin L; Test 1, class symbols) | Ki (human cathepsin L; Test 2 or unnumbered test) | Compound | % absorption in man [5] | further results
– | 2.7 nM | – | – | 300 nM | CC(C)=C[C@@H]1CN(C(=O)[C@H](CC(C)C)NC(=O)c2ccc(-c3nc(N4CCN(C)CC4)sc3F)cc2)[C@@H]2C(=O)CO[C@H]12 [Example 4, N-[1-6-(dimethylvinyl-3-oxo-hexahydro-furo[3,2-b]pyrrole-4-carbonyl)-3-methyl-butyl]-4-[5-fluoro-2-(4-methyl-piperazin-1-yl)thiazol-4-yl]-benzamide] | – | –
– | – | 6100 nM | – | – | CC(C)C[C@H](NC(=O)c1ccc(-c2csc(N3CCN(C)CC3)n2)cc1)C(=O)N1C[C@@H](C=C(Br)Br)[C@H]2OCC(=O)[C@H]21 [Ref Ex 9] | – | –

Second part, the compound before the results:

Compound | Ki ([1]; Test 1, class symbols) | Ki ([1]; Test 2 or unnumbered test) | Ki (human cathepsin S; Test 2 or unnumbered test) | Ki (human cathepsin L; Test 1, class symbols) | Ki (human cathepsin L; Test 2 or unnumbered test) | % absorption in man [5] | further results
C#C[C@@H]1CN(C(=O)[C@H](CC(C)C)NC(=O)c2ccc(-c3csc(N4CCN(C)CC4)n3)cc2)[C@@H]2C(=O)CO[C@H]12 [Example 1, N-[1-6-(ethynyl-3-oxo-hexahydro-furo[3,2-b]pyrrole-4-carbonyl)-3-methyl-butyl]-4-[2-(4-methyl-piperazin-1-yl)thiazol-4-yl]-benzamide] | < 50 nM | 1.6 nM | 25000 nM | 1000 to 5000 nM | 2000 nM | – | Ki (human cathepsin S; Test 1, class symbols): > 10000 nM; microsomal CLint ([2]; whole blood): 3 µL/min/mg; microsomal CLint [3]: 16 µL/min/mg
C#C[C@@H]1CN(C(=O)[C@H](CC(C)C)NC(=O)c2ccc(-c3nc(N4CCN(C)CC4)sc3F)cc2)[C@@H]2C(=O)CO[C@H]12 [Example 2, N-[1-6-(ethynyl-3-oxo-hexahydro-furo[3,2-b]pyrrole-4-carbonyl)-3-methyl-butyl]-4-[5-fluoro-2-(4-methyl-piperazin-1-yl)thiazol-4-yl]-benzamide] | < 50 nM | 1.1 nM | 21000 nM | 1000 to 5000 nM | 1700 nM | – | Ki (human cathepsin S; Test 1, class symbols): > 10000 nM; in vivo exposure (Cmax or AUC) [4]: very much greater; Papp at 120 min, 10 µM (Caco-2 permeability): 9.1 ×10⁻⁶ cm/s
C#C[C@@H]1CN(C(=O)[C@H](CC(C)C)NC(=O)c2ccc(-c3csc(N4CCN(C)CC4)n3)c(F)c2)[C@@H]2C(=O)CO[C@H]12 [Example 3, N-[1-6-(ethynyl-3-oxo-hexahydro-furo[3,2-b]pyrrole-4-carbonyl)-3-methyl-butyl]-3-fluoro-4-[2-(4-methyl-piperazin-1-yl)thiazol-4-yl]-benzamide] | < 50 nM | 4 nM | – | 501 to 1000 nM | 1400 nM | – | –
N[C@@H](Cc1ccccc1)C(=O)O [L-Phenylalanine] | – | – | – | – | – | 100% | –
OC[C@@H](O)[C@@H](O)[C@H](O)[C@H](O)CO [Mannitol] | – | – | – | – | – | 16% | –
CN(Cc1cnc2nc(N)nc(N)c2n1)c1ccc(C(=O)N[C@@H](CCC(=O)O)C(=O)O)cc1 [Methotrexate] | – | – | – | – | – | 20% | –
CC(C)C[C@H](NC(=O)c1ccc(-c2csc(N3CCN(C)CC3)n2)cc1)C(=O)N1C[C@@H](C)[C@H]2OCC(=O)[C@H]21 [comparative example] | – | – | – | – | – | – | estimated / calculated whole blood half life ([2]; calculated from whole blood CLint): little over an hour; microsomal CLint ([2]; whole blood): 9 µL/min/mg; whole blood CLint value ([2]; whole blood): 9 µL/min/mg; microsomal CLint [3]: 49 µL/min/mg
N—((S)-1-((3aS,6R,6aS)-6-methoxy-oxodihydro-2H-furo[3,2-b]pyrrol-4(5H,6H,6aH)-yl)-4-methyl-oxopentan-2-yl)-4-(2-(4-methylpiperazine-1-yl)thiazol-4-yl)benzamide | – | – | – | – | – | – | papp value (Caco-2 cells): 9e-07 cm/s
